Results: paper PMC4850295, “Using a Genetically Encoded Sensor to Identify Inhibitors of Toxoplasma gondii Ca^2+ Signaling” (The Journal of Biological Chemistry, 2016)

The molecules below were run on T1, GCaMP5-expressing T. gondii. Settings: 100 uM zaprinast stimulation; 10 min pretreatment; mean of two replicates; 0.23 h.
T1 construct: whole extracellular parasites expressing GCaMP5 Ca2+ sensor
Parameters: species or system GCaMP5-expressing Toxoplasma gondii, extracellular; GCaMP5 fluorescence (cytosolic Ca2+) after 100 uM zaprinast in compound-pretreated extracellular parasites, background-subtracted, relative to zaprinast alone
Summary of the method: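 Read-out is GCaMP5 calcium fluorescence (ex 485/em 525 nm) taken 4 min after 100 μM zaprinast at 37 °C, following 10 min compound pretreatment at 10 μM in duplicate biological replicates. Values are basal-subtracted fold change versus zaprinast-only controls; parasites held extracellular in Ringer's solution.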

| Compound | fold change in fluorescence relative to zaprinast alone |
| --- | --- |
| COc1cc(Nc2nccc(N3CCC(NC(=O)Nc4ccc5c(c4)OCO5)C3)n2)cc(OC)c1OC (stereo not drawn) [GSK1379766A] | 1.478 |
| COC(=O)c1cccc(NC(=O)NC2CCN(c3ccnc(Nc4cc(OC)c(OC)c(OC)c4)n3)C2)c1 (stereo not drawn) [GSK1379767A] | 1.23 |
| COc1ccc(CNC(=O)NC2CCN(c3ccnc(Nc4ccc(F)cc4)n3)CC2)cc1 [GSK1379788A] | 1.01 |
| O=C(Nc1ccccc1F)NC1CCN(c2ccnc(Nc3ccc(F)cc3)n2)CC1 [GSK1379800A] | 0.9564 |
| COc1ccc(Nc2nccc(N3CCC(NC(=O)C(C)c4ccc(Cl)cc4)CC3)n2)cc1 (stereo not drawn) [GSK1379812A] | 1.185 |
| COc1cc(Nc2nccc(N3CCC(NS(=O)(=O)c4ccc(NC(C)=O)cc4)CC3)n2)cc(OC)c1OC [GSK1379825A] | 1.055 |
| O=C(Nc1ccc2c(c1)OCO2)NC1CCN(c2ccnc(NCc3ccc(F)cc3)n2)CC1 [GSK1379859A] | 0.7305 |
| COC(=O)c1cccc(NC(=O)NC2CCN(c3ccnc(NCc4ccc(F)cc4)n3)CC2)c1 [GSK1379860A] | 0.8716 |
| O=C(NCCNc1ccnc(Nc2ccc(F)cc2)n1)c1cc2ccccc2s1 [GSK1379874A] | 0.6895 |
| Cc1ccc(C)c(NC(=O)NCCNc2ccnc(Nc3ccc(F)cc3)n2)c1 [GSK1379878A] | 1.583 |
| COc1cccc(NC(=O)NCCNc2ccnc(Nc3ccc(F)cc3)n2)c1 [GSK1379879A] | 1.178 |
| O=C(NCCNc1ccnc(Nc2ccc(F)cc2)n1)Nc1ccccc1F [GSK1379880A] | 1.302 |
| O=C(NCCNc1ccnc(Nc2ccc(F)cc2)n1)Nc1ccc2c(c1)OCO2 [GSK1379882A] | 1.425 |
| COC(=O)c1cccc(NC(=O)NCCNc2ccnc(Nc3ccc(F)cc3)n2)c1 [GSK1379883A] | 0.8839 |
| COc1ccc(Nc2nccc(NCCNC(=O)c3cc4ccccc4s3)n2)cc1 [GSK1379896A] | 1.173 |
| COc1ccc(Nc2nccc(NCCNC(=O)Nc3cc(C)ccc3C)n2)cc1 [GSK1379899A] | 1.713 |
| COc1ccc(Nc2nccc(NCCNC(=O)Nc3ccccc3F)n2)cc1 [GSK1379901A] | 0.9014 |
| O=C(NCCNc1ccnc(NCc2ccc(F)cc2)n1)c1cc2ccccc2s1 [GSK1379944A] | 0.7055 |
| CCNCC(Cc1ccccc1)NC(=O)c1cc(Br)c(-c2ccnc3[nH]ccc23)s1 (stereo not drawn) [GSK1383280A] | 0.5995 |
| CC(C)NCC(Cc1ccccc1)NC(=O)c1cc(Br)c(-c2ccnc3[nH]ccc23)s1 (stereo not drawn) [GSK1383281A] | 1.049 |
| COc1ccc(C[C@@H](CN)NC(=O)c2cc(Br)c(-c3ccnc4[nH]ccc34)s2)cc1 [GSK1389063A] | 0.8633 |

| Compound | fold change in fluorescence relative to zaprinast alone |
| --- | --- |
| COc1cc(N2CCN(C(C)C)CC2)ccc1Nc1nc(Nc2ccc(F)cc2C(=O)NC[C@@H](O)CO)c2cc[nH]c2n1 [GSK1392956A] | 1.138 |
| Cc1ccc(NC(=O)c2ccc(Cl)c(Cl)c2)cc1-c1ccc(C(=O)Nc2ccncc2)cc1 [GSK1398460A] | 1.557 |
| Cc1ccc(NC(=O)c2cccc(C#N)c2)cc1-c1ccc(C(=O)Nc2ccncc2)cc1 [GSK1398463A] | 1.609 |
| Cc1ccc(NC(=O)Nc2cccc(Cl)c2)cc1-c1ccc(C(=O)Nc2ccncc2)cc1 [GSK1398468A] | 0.4262 |
| Cc1ccc(NC(=O)Nc2ccc(Cl)c(C(F)(F)F)c2)cc1-c1ccc(C(=O)Nc2ccncc2)cc1 [GSK1398470A] | 0.581 |
| Cc1ccc(C)c(NC(=O)Nc2ccc(C)c(-c3ccc(C(=O)Nc4ccncc4)cc3)c2)c1 [GSK1398473A] | 1.092 |
| COc1cccc(NC(=O)Nc2ccc(C)c(-c3ccc(C(=O)Nc4ccncc4)cc3)c2)c1 [GSK1398474A] | 1.231 |
| Cc1cc(-c2ccnc(Nc3cccc(C#N)c3)n2)cc(C)c1O [GSK1440913A] | 0.3868 |
| NC[C@H](Cc1ccc(C(F)(F)F)cc1)NC(=O)c1cc(Br)c(-c2ccnc3[nH]ccc23)s1 [GSK1487252A] | 0.4926 |
| CNC(=O)c1ccccc1Nc1nc(Nc2cccc(CS(C)(=O)=O)c2)ncc1C [GSK1520489A] | 1.293 |
| NS(=O)(=O)c1cccc(-c2ccc3ncc(N4CCOCC4)nc3c2)c1 [GSK1535721A] | 1.22 |
| COc1ccc(Nc2ncc(C#N)c(Nc3ccccc3C(N)=O)n2)cc1N1CCN(C)CC1 [GSK1558669A] | 1.412 |
| CNC(=O)c1ccccc1Nc1nc(Nc2ccc(N3CCOCC3)cc2)ncc1Cl [GSK1576028A] | 1.198 |
| NC[C@H](CC1CCCCC1)NC(=O)c1cc(Br)c(-c2ccnc3[nH]ccc23)s1 [GSK1581427A] | 1.128 |
| NC[C@H](CC1CCCCC1)NC(=O)c1ccc(-c2ccnc3[nH]ccc23)s1 [GSK1581428A] | 1.197 |
| Nc1ncc(-c2ccc3nccc(-c4ccncc4)c3c2)cc1S(=O)(=O)N1CCOCC1 [GSK1627798A] | 1.041 |
| CC(=O)N1CCN(c2ccc(Nc3nccc(-c4sc(C(C)C)nc4-c4cccc(NS(=O)(=O)c5ccccc5)c4)n3)cn2)CC1 [GSK1645872A] | 0.8017 |
| CC(C)c1nc(-c2cccc(NS(=O)(=O)c3ccccc3)c2)c(-c2ccnc(Nc3ccc4c(c3)CN(C)CC4)n2)s1 [GSK1649598A] | 0.9359 |
| Cc1cc(N2CCC(NS(=O)(=O)c3ccc(F)cc3)CC2)nc(Nc2cccc(C#N)c2)n1 [GSK1653537A] | 0.8395 |
| COc1ccc(S(=O)(=O)NC2CCN(c3cc(C)nc(Nc4cccc(C#N)c4)n3)CC2)cc1 [GSK1653539A] | 0.8764 |
| CC(=O)N1CCN(c2ccc(Nc3nccc(-c4sc(C(C)C)nc4-c4cccc(NS(=O)(=O)c5cccc(Cl)c5)c4)n3)cn2)CC1 [GSK1660437A] | 1.275 |

| Compound | fold change in fluorescence relative to zaprinast alone |
| --- | --- |
| Cc1occc1-c1nc(N)c(OC[C@@H](N)Cc2c[nH]c3ccccc23)cc1-c1cc2c(C)[nH]nc2cn1 [GSK1660450B] | 1.179 |
| Cc1cc(N2Cc3ccccc3C2)nc(Nc2ccc(S(=O)(=O)N3CCOCC3)cc2)n1 [GSK1669917A] | 1.107 |
| CN(C)S(=O)(=O)c1cc(-c2ccc3nccc(-c4cccc(S(N)(=O)=O)c4)c3c2)cnc1N [GSK1669921A] | 1.101 |
| Nc1ncc(-c2ccc3nccc(-c4ccncc4)c3c2)cc1S(=O)(=O)N1CCCCC1 [GSK1693850A] | 0.1427 |
| CCCN1CCC(Oc2cc(Nc3nc(Nc4cccc(F)c4C(N)=O)c4cc[nH]c4n3)c(OC)cc2Cl)CC1 [GSK1713088A] | 1.364 |
| CC(C)c1nc(-c2cccc(NS(=O)(=O)c3c(F)cccc3F)c2)c(-c2ccnc(Nc3ccc(N4CCOCC4)nc3)n2)s1 [GSK1723980B] | 0.6316 |
| CC(C)c1nc(-c2ccc(F)c(NS(=O)(=O)c3c(F)cccc3F)c2)c(-c2ccnc(Nc3ccc(N4CCOCC4)nc3)n2)s1 [GSK1804250A] | 1.361 |
| COc1cc(N2CCN(C(C)C)CC2)ccc1Nc1nc(Nc2cccc(F)c2C(=O)O)c2cc[nH]c2n1 [GSK1819799A] | 1.115 |
| Cc1ccc(NC(=O)c2cccc(N3CCCCC3)c2)cc1-c1ccc(C(=O)NCC2CC2)cc1 [GSK1917008A] | 1.193 |
| CC(C)c1nc(-c2cccc(NS(=O)(=O)c3c(F)cccc3F)c2F)c(-c2ccnc(Nc3ccc(N4CCOCC4)nc3)n2)s1 [GSK2008607A] | 1.572 |
| COc1cc2c(cc1Nc1nc(Nc3ccsc3C(N)=O)c3cc[nH]c3n1)N(C(=O)CN(C)C)CCC2 [GSK2110236A] | 1.302 |
| N#Cc1ccc(CCNc2nccc(-c3cccc(CN4CCNCC4)c3)n2)cc1 [GSK2137462A] | 0.3754 |
| COc1cc2c(cc1Nc1nc(Nc3ccsc3C(N)=O)c3cc[nH]c3n1)N(C(=O)CN(C)C)CCC2(C)C [GSK2163632A] | 1.131 |
| O=c1[nH]ccc2nc(N[C@@H]3CCCNC3)nc(Nc3ccc(S(=O)(=O)N4CCOCC4)cc3)c12 [GSK2177277A] | 1.049 |
| O=c1[nH]ccc2nc(N[C@@H]3CCNC3)nc(Nc3ccc4c(c3)S(=O)(=O)CC4)c12 [GSK2181306A] | 1.236 |
| COc1cc2c(cc1Nc1nc(N3CCc4ccccc43)c3cc[nH]c3n1)N(C(=O)CN(C)C)CC2 [GSK2186269A] | 1.113 |
| O=c1[nH]ccc2nc(N[C@@H]3CCNC3)nc(Nc3cc(Cl)cc(Cl)c3)c12 [GSK2188764A (Enh2)] | 2.366 |
| Nc1n[nH]c2cc(-c3ccccn3)ccc12 [GSK2189892A] | 1.03 |
| Nc1cccc(-c2ccc3c(N)n[nH]c3c2)n1 [GSK2192730A] | 1.059 |
| Nc1cccc(-c2ccc3c(N)n[nH]c3c2)c1 [GSK2193613A] | 0.7898 |
| Cc1cccc(Nc2nc(N[C@H]3CCNC3)ncc2C(N)=O)c1 [GSK2197149A] | 1.037 |
